Experiment [1] is described as follows: Generalized Anxiety Disorders Assessment (GAD-7) questionnaire before and after treatment. To be noted: for anxiety: GAD-7 post vs pre-treatment; for General anxiety disorder (GAD-7) score, post treatment: 5-9 mild, 10-14 moderate, 15-21 severe anxiety. It counts as in vivo, human. The procedure: (§1) 6 anorexic patients were treated with donepezil: 5 of them with a daily dose according to the present invention and 1 with a higher dose (comparative).
(§2) The studies were led in hospital. Each case is presented below.
(§3) The treatment started with a daily dose of donepezil of 0.5 mg for 10 days then the daily dose was increased to 1 mg for 7 days then increased to 1.5 mg for 71 days (2 months and 10 days) then increased to 2 mg for 22 days and then increased to 2.5 mg and remains on this dose for 4 months and 18 days.
Patient #2 anxiety has also been evaluated with Generalized Anxiety Disorders Assessment (GAD-7) questionnaire (available on https://adaa.org/sites/default/files/GAD-7_Anxiety-updated_O.pdf) before and after the treatment. The following scores have been obtained:
The score obtained with questionary GAD-7 is classified as follows: • 5-9: mild anxiety; 10-14: moderate anxiety; 15-21: severe anxiety
(§4) The treatment started with a daily dose of donepezil of 0.5 mg for 13 days then the daily dose was increased to 0.75 mg for 9 days then increased to 1 mg for 17 days and then increased to 1.5 mg and remained at this dosage for a month then stopped for two months and then restarted with a daily dose of 1.5 mg that remains within 1 month and then discontinued.
Patient #4 anxiety has also been evaluated with questionnaire GAD-7 before and after the treatment. The following scores have been obtained:
(§5) The treatment started with a daily dose of donepezil of 0.5 mg for 8 days and then the daily dose was increased to 1 mg for 9 days and then increased to 1.67 mg for 62 days and then increased to 2.5 mg.
Patient #6 anxiety has also been evaluated with questionnaire GAD-7 before and after the treatment. The following scores have been obtained:
The score obtained with questionnaire GAD-7 is classified as follows: • 5-9: mild anxiety; 10-14: moderate anxiety; 15-21: severe anxiety

Experiment [2] in a line: Patient Health Questionnaire (PHQ-9) before and after treatment. It counts as in vivo, human. To be noted: for depression symptoms: PHQ-9 post vs pre-treatment; for Patient Health Questionnaire (PHQ-9) score, post treatment: 5-9 mild, 10-14 moderate, 15-19 moderately severe, 20-27 severe depression. The procedure:
as §1, §2, §3
Patient #2 depression symptoms have also been evaluated with Patient Health Questionnaire (PHQ-9) (available on https://med.stanford.edu/fastlab/research/imapp/msrs/_jcr_content/main/accordion/accor dion_content3/download_256324296/file.res/PHQ9%20id%20date%2008.03.pdf) before and after the treatment. The following scores have been obtained:
The score obtained with questionnaire PHQ-9 is classified as follows: • 5-9: mild depression; 10-14: moderate depression; 15-19: moderately severe depression; • 20-27: severe depression
as §4
Patient #4 depression symptoms have also been evaluated with questionnaire PHQ-9 before and after the treatment. The following scores have been obtained:
The score obtained with questionnaire PHQ-9 is classified as follows: • 5-9: mild depression; 10-14: moderate depression; 15-19: moderately severe depression; 20-27: severe depression
as §5
Patient #6 depression symptoms have also been evaluated with questionnaire PHQ-9 before and after the treatment.

Where [3] appears, read: Patient #2, daily dose 0.5-2.5 mg.
The mark [4] stands for this setting: Patient #4, daily dose 0.5 to 1.5 mg.
The mark [5] stands for this setting: Patient #6, daily dose 0.5 mg to 2.5 mg.

In the case of `COc1cc2c(cc1OC)C(=O)C(CC1CCN(Cc3ccccc3)CC1)C2` (stereo not drawn) [donepezil], the anxiety result in experiment [1] (setting [3]) was “diminution of their anxiety”; in experiment [1] (setting [4]), “diminution of their anxiety”; in experiment [1] (setting [5]) it was “strong diminution of their anxiety”. For the same molecule, the “General anxiety disorder (GAD-7) score, post treatment” value is 12 in experiment [1] (Patient #2, daily dose 0.5-2.5 mg, pre-treatment score 16); 9 in experiment [1] (Patient #4, daily dose 0.5 to 1.5 mg, pre-treatment score 16); 3 in experiment [1] (Patient #6, daily dose 0.5 mg to 2.5 mg, pre-treatment score 15). Moreover, the depression symptoms entry in experiment [2] (setting [3]), in experiment [2] (setting [4]) and in experiment [2] (setting [5]) was “diminution of their depression symptoms” in each case. Besides, the “Patient Health Questionnaire (PHQ-9) score, post treatment” value amounted to 4 in experiment [2] (Patient #2, daily dose 0.5-2.5 mg, pre-treatment score 10); 5 in experiment [2] (Patient #4, daily dose 0.5 to 1.5 mg, pre-treatment score 17); 2 in experiment [2] (Patient #6, daily dose 0.5 mg to 2.5 mg, pre-treatment score 6).

The record behind these values is patent US20260373136A1, “A NOVEL DOSAGE REGIMEN USING LOW DOSES OF DONEPEZIL OR DERIVATIVE THEREOF FOR PREVENTING OR TREATING A COMPULSIVE DISORDER” (SORBONNE UNIVERSITE, priority 2022, published 2026).
